In ChEMBL document CHEMBL1125997 (Bioorg Med Chem Lett, 1991):

species on record: Cavia porcellus; assay: Inhibition of histamine-inducedcontraction of the isolated guinea-pig ileum; assay type: functional; details: read-out: pA2 (converted)

SMILES	Kb [nM]
CC(C)(C)c1ccc([C@@H](O)CCCN2CCC(C(O)(c3ccccc3)c3ccccc3)CC2)cc1	19.1
CC(C)(C)c1ccc([C@H](O)CCCN2CCC(C(O)(c3ccccc3)c3ccccc3)CC2)cc1 [R-TERFENADINE]	24.5
CC(C)(C)c1ccc(C(O)CCCN2CCC(C(O)(c3ccccc3)c3ccccc3)CC2)cc1 (stereo not drawn) [TERFENADINE]	22.4
